For 32 compounds, AC50 results are on record in patent US20160046579A1, “THERAPEUTIC COMPOUNDS AND COMPOSITIONS” (AGIOS PHARMACEUTICALS, INC., priority 2013, published 2016).

For one experiment, the target named is PKR R510Q (Homo sapiens, UniProt P30613, R510Q). The experiment in a line: PKR Mutant Assay, dose response (AC50), PKR R510Q. The format is biochemical. The conditions noted are these: PKR R510Q mutant enzyme. The method, then:
(§1) • PKR or PKR mutant enzyme solution was diluted in assay buffer. • 2 μL of test compound was added into wells first, and then 180 μL reaction mix was added. • Reactions mixture with test compound was assembled except for ADP, and plates were stored for 60 minutes at room temperature. • 20 uL ADP was added to start reaction at room temperature and reaction progress was measured as changes in absorbance at 340 nm wavelength at room temperature.
(§2) Test Compound Preparation: • Test compound stock was made at 100× concentration in 100% DMSO (10 mM) • 1 to 3 dilutions were made for 11 points (i.e. 50 μl of first concentration added to 100 μl 100% DMSO to yield 3.33 mM, 50 μl of this added to 100 μl DMSO to yield 1.11 mM, and so forth) • 1 to 100 dilution into assay (2 μl in 200 μl) yielded starting concentration of 100 μM, decreasing 3 fold for 11 points.

The target of experiment [1] is T1, wt PKR (Homo sapiens, UniProt P30613). The experiment can be described thus: PKR Mutant Assay, dose response (AC50), wild type PKR enzyme. It counts as biochemical. The conditions noted are these: wild type PKR enzyme. The protocol:
as §1, §2

In another experiment the target is PKR R532W (Homo sapiens, UniProt P30613, R532W). The experiment can be described thus: PKR Mutant Assay, dose response (AC50), PKR R532W. The format is biochemical. Conditions: PKR R532W mutant enzyme. The method, then:
as §1, §2

Experiment [2] addresses T1, wt PKR. The experiment can be described thus: wt PKR cell based assay.

T1 sequence (P30613 whole entry): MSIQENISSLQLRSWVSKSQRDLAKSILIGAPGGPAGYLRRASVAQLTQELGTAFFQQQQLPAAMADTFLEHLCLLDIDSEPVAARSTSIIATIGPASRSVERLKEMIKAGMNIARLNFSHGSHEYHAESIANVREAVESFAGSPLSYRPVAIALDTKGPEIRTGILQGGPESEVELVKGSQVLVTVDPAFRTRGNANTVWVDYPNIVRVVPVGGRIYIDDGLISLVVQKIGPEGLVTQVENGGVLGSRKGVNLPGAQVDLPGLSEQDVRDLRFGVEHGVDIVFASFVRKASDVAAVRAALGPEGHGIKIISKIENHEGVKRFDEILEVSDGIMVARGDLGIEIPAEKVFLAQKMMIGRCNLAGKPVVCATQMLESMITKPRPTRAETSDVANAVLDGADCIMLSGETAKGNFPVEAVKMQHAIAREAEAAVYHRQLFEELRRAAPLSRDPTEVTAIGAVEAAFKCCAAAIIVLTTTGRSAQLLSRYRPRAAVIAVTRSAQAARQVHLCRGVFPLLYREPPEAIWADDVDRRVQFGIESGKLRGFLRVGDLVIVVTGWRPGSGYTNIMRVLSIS
Chain of PKR R510Q (P30613 whole entry R510Q): as the sequence (P30613 whole entry) above, with R510Q counted along it
Chain of PKR R532W (P30613 whole entry R532W): as the sequence (P30613 whole entry) above, with R532W counted along it

One may read the AC50 as the concentration at which the activity in the assay is half-maximal. A lower AC50 goes with greater potency. On to `CC(C)CC1(O)CCN(C(=O)c2ccc(NS(=O)(=O)c3cnc(O)c4cccnc34)cc2)CC1` [Compound 416], for which the AC50 at PKR R510Q is more than 10000 nM.
As to `CC(C)CC1(O)CCN(C(=O)c2ccc(NS(=O)(=O)c3cccc4cncnc34)cc2)CC1` [Compound 441], on wt PKR [1], the AC50 was 101 to 1000 nM.
Regarding `CC(C)CC1(O)CCN(C(=O)c2ccc(NS(=O)(=O)c3cccc4[nH]cnc34)cc2)CC1` [Compound 449], the AC50 on PKR R532W, on PKR R510Q and on wt PKR [1] was more than 10000 nM in each case.
`Cn1ccc(C2(O)CCN(C(=O)c3ccc(NS(=O)(=O)c4cccc5scnc45)cc3)CC2)n1` [Compound 450]: the AC50 at PKR R532W, on PKR R510Q and at wt PKR [1] was more than 10000 nM throughout.
Take `CC(C)CC1(O)CCN(C(=O)c2ccc(NS(=O)(=O)c3cccc4ncc(O)nc34)cc2)CC1` [Compound 460]: the AC50 on PKR R532W, at PKR R510Q and on wt PKR [1] was more than 10000 nM throughout.
On to `CS(=O)(=O)CCC1(O)CCN(C(=O)c2ccc(NS(=O)(=O)c3cccc4scnc34)cc2)CC1` [Compound 466], for which the AC50 on PKR R532W is more than 10000 nM; at PKR R510Q, more than 10000 nM; at wt PKR [1] it was 1010 to 10000 nM.
As to `CS(=O)(=O)CCC1(O)CCN(C(=O)c2ccc(NS(=O)(=O)c3cccc4nccnc34)cc2)CC1` [Compound 470], the figures for the AC50 on PKR R532W, at PKR R510Q and at wt PKR [1] were 1010 to 10000 nM, more than 10000 nM and 1010 to 10000 nM, respectively.
As to `CS(=O)(=O)CC1(O)CCN(C(=O)c2ccc(NS(=O)(=O)c3cccc4scnc34)cc2)CC1` [Compound 472], the AC50 was 101 to 1000 nM at PKR R532W, 1010 to 10000 nM on PKR R510Q and 101 to 1000 nM on wt PKR [1].
`CS(=O)(=O)CC1(O)CCN(C(=O)c2ccc(NS(=O)(=O)c3cccc4nccnc34)cc2)CC1` [Compound 474]: the half-maximal activity concentration (AC50) on PKR R532W lay in the range of 101 to 1000 nM; on PKR R510Q, 1010 to 10000 nM; at wt PKR [1], 101 to 1000 nM.
In the case of `CC(C)(O)CCCC1(O)CCN(C(=O)c2ccc(NS(=O)(=O)c3cccc4nccnc34)cc2)CC1` [Compound 475], the AC50 at PKR R532W and at wt PKR [1] was more than 10000 nM throughout.
For the compound `CC(C)(O)CCCC1(O)CCN(C(=O)c2ccc(NS(=O)(=O)c3cccc4scnc34)cc2)CC1` [Compound 476], the AC50 at PKR R532W and on wt PKR [1] was 1010 to 10000 nM throughout.
Consider `CC(F)(F)CCC1(O)CCN(C(=O)c2ccc(NS(=O)(=O)c3cccc4scnc34)cc2C#N)CC1` [Compound 477, N-(3-cyano-4-(4-(3,3-difluorobutyl)-4-hydroxypiperidine-1-carbonyl)phenyl)benzo[d]thiazole-4-sulfonamide], for which the results for the AC50 at PKR R532W, at PKR R510Q and at wt PKR [1] were 101 to 1000 nM, 1010 to 10000 nM and 101 to 1000 nM, respectively.
On to `O=C(c1ccc(NS(=O)(=O)c2cccc3scnc23)cc1)N1CCC(O)(c2nc(Cl)cs2)CC1` [Compound 481], for which the AC50 was in the range of 101 to 1000 nM on PKR R532W, 1010 to 10000 nM at PKR R510Q and 1010 to 10000 nM on wt PKR [1].
As to `CCS(=O)(=O)CC1(O)CCN(C(=O)c2ccc(NS(=O)(=O)c3cccc4scnc34)cc2)CC1` [Compound 484], the AC50 is 1010 to 10000 nM at PKR R532W, more than 10000 nM at PKR R510Q and 1010 to 10000 nM on wt PKR [1].
On to `Nc1nc(CC2(O)CCN(C(=O)c3ccc(NS(=O)(=O)c4cccc5scnc45)cc3)CC2)cs1` [Compound 485], for which the AC50 on PKR R532W was 1010 to 10000 nM; at PKR R510Q, more than 10000 nM; on wt PKR [1] it was 1010 to 10000 nM.
For the compound `CN1CCC(C2(CO)CCN(C(=O)c3ccc(NS(=O)(=O)c4cccc5scnc45)cc3)CC2)C1=O` (centres unmarked) [Compound 487], the AC50 at PKR R532W, on PKR R510Q and at wt PKR [1] was 1010 to 10000 nM in each case.
For the compound `CN1CCC(CC2(O)CCN(C(=O)c3ccc(NS(=O)(=O)c4cccc5scnc45)cc3)CC2)C1=O` (centres unmarked) [Compound 488], the AC50 was 101 to 1000 nM at PKR R532W, more than 10000 nM on PKR R510Q and 1010 to 10000 nM at wt PKR [1].
For `CCS(=O)(=O)CC1(O)CCN(C(=O)c2ccc(NS(=O)(=O)c3cccc4nccnc34)cc2)CC1` [Compound 490], the AC50 on PKR R532W is 1010 to 10000 nM; on PKR R510Q it was more than 10000 nM; on wt PKR [1], 1010 to 10000 nM.
As to `O=C(c1ccc(NS(=O)(=O)c2cccc3nccnc23)cc1)N1CCC(O)(Cc2nc(Cl)cs2)CC1` [Compound 494], the AC50 at PKR R510Q lay in the range of 101 to 1000 nM.
As to `O=C1NCCC1CC1(O)CCN(C(=O)c2ccc(NS(=O)(=O)c3cccc4scnc34)cc2)CC1` (centres unmarked) [Compound 495], the AC50 on PKR R532W was 1010 to 10000 nM; at PKR R510Q it was more than 10000 nM; on wt PKR [1], 1010 to 10000 nM.
With `O=C1NCCC1CC1(O)CCN(C(=O)c2ccc(NS(=O)(=O)c3cccc4nccnc34)cc2)CC1` (centres unmarked) [Compound 496], the AC50 was 1010 to 10000 nM at PKR R532W, more than 10000 nM on PKR R510Q and 1010 to 10000 nM on wt PKR [1].
`CCn1cc(CC2(O)CCN(C(=O)c3ccc(NS(=O)(=O)c4cccc5nccnc45)cc3)CC2)cn1` [Compound 503]: the half-maximal activity concentration (AC50) was 101 to 1000 nM at PKR R532W, more than 10000 nM on PKR R510Q and 101 to 1000 nM on wt PKR [1].
Consider `CC1(O)CCC(C2(O)CCN(C(=O)c3ccc(NS(=O)(=O)c4cccc5scnc45)cc3)CC2)CC1` (centres unmarked) [Compound 504], for which the figures for the AC50 on PKR R532W, on PKR R510Q and on wt PKR [1] were 1010 to 10000 nM, 1010 to 10000 nM and 101 to 1000 nM, respectively.
As to `CC1(O)CCC(C2(O)CCN(C(=O)c3ccc(NS(=O)(=O)c4cccc5nccnc45)cc3)CC2)CC1` (centres unmarked) [Compound 505], the AC50 on PKR R532W, on PKR R510Q and on wt PKR [1] was 101 to 1000 nM in each case.
On to `CCn1cc(CC2(O)CCN(C(=O)c3ccc(NS(=O)(=O)c4cccc5scnc45)cc3)CC2)cn1` [Compound 506], for which the AC50 at PKR R532W is 1010 to 10000 nM; on PKR R510Q it was more than 10000 nM; at wt PKR [1], 1010 to 10000 nM.
Consider `Cn1ccc(CC2(O)CCN(C(=O)c3ccc(NS(=O)(=O)c4cccc5nccnc45)cc3)CC2)n1` [Compound 507], for which the AC50 is 101 to 1000 nM on PKR R532W, more than 10000 nM at PKR R510Q and 101 to 1000 nM on wt PKR [1].
Take `O=C(c1ccc(NS(=O)(=O)c2cccc3scnc23)cc1)N1CCC(O)(c2ncc(Cl)s2)CC1` [Compound 509]: the values for the AC50 at PKR R532W, at PKR R510Q and on wt PKR [1] were 101 to 1000 nM, more than 10000 nM and 1010 to 10000 nM, respectively.
As to `O=C(c1ccc(NS(=O)(=O)c2cccc3scnc23)cc1)N1CCC(O)(c2ccns2)CC1` [Compound 515, N-(4-(4-hydroxy-4-(isothiazol-5-yl)piperidine-1-carbonyl)phenyl)benzo[d]thiazole-4-sulfonamide], the AC50 at wt PKR [2] and at PKR R510Q was 101 to 1000 nM in each case.
As to `O=C(c1ccc(NS(=O)(=O)c2cccc3nccnc23)cc1)N1CCC(O)(c2sncc2Cl)CC1` [Compound 516, N-(4-(4-(4-chloroisothiazol-5-yl)-4-hydroxypiperidine-1-carbonyl)phenyl)quinoxaline-5-sulfonamide], the AC50 at wt PKR [2] is less than 100 nM; on PKR R510Q it was 101 to 1000 nM.
On the same counts, the results for `O=C(c1ccc(NS(=O)(=O)c2cccc3nccnc23)cc1)N1CCC(O)(c2ccns2)CC1` [Compound 517] are 101 to 1000 nM and 101 to 1000 nM.
On the same counts, the results for `CC(C)CC1(OP(=O)(O)O)CCN(C(=O)c2ccc(NS(=O)(=O)c3cccc4nccnc34)cc2)CC1` [Compound 525] are 101 to 1000 nM and more than 10000 nM.
In the case of `CC(C)CC1(N)CCN(C(=O)c2ccc(NS(=O)(=O)c3cccc4scnc34)cc2)CC1` [Compound 529], the AC50 at PKR R532W and at PKR R510Q was 101 to 1000 nM each time.
